# Laboratory results reported in patent US9717732B2, “Drug combination” (VERONA PHARMA PLC, priority 2013, dated 2017).
# Key:
# [1] = test system: human isolated bronchial preparations; assay: Inhibition of EFS-induced contraction of human isolated bronchi; settings: after termination of drug exposure
# Protocol: Regions of macroscopically normal lungs were taken from uninvolved areas resected from 24 subjects (11 male and 13 female, 60.1±1.6 years old) undergoing lobectomy surgery for lung cancer, but without a history of chronic airway disease.
# Airways were immediately placed into oxygenated Krebs-Henseleit buffer solution (KH) (mM: NaCl 119.0, KCl 5.4, CaCl2 2.5, KH2PO41.2, MgSO4 1.2, NaHCO3 25.0, glucose 11.7; pH 7.4) containing the cyclooxygenase (COX) inhibitor indomethacin (5.0 μM), and transported at 4° C. from the “Regina Elena National Cancer Institute” or the “Sant'Andrea Hospital” to the Respiratory Research Laboratory in the Surgery and Medicine Faculty of “Tor Vergata University”, Rome, Italy. None of the subjects were chronically treated with theophylline, β2-agonists or glucocorticosteroids. Serum IgE levels determined on the day of surgery were in the normal range. […]
# Human bronchi were placed in organ baths containing KH buffer solution (37° C.) medicated with indomethacin (5.0 μM), bubbled with 95% O2/5% CO2 and suspended under passive tension (0.5-1.0 g). […] Changes in isometric tension were measured with a transducer (Fort 10 WPI, Basile, Instruments, Italy) and the tissue responsiveness was assessed by acetylcholine (100 μM); when the response reached a plateau, rings were washed three times and allowed to equilibrate for 45 min. […]
# [2] = test system: human isolated bronchial tissues pre-contracted with acetylcholine; assay: Relaxation of human isolated bronchi pre-contracted with acetylcholine (EC70), drugs alone and in combination, synergy analysis; settings: n=5; for slope (nH): 4 parameter logistic fit
# Protocol: Bronchial rings were mounted on hooks in the organ baths where one hook was attached with threaded to a stationary rod and the other hook tied with thread to an isometric force displacement transducer. […] Tallarida, 2001; Goldoni and Johansson, 2007; Boik et al., 2008; Lee, 2010). […] Goodman et al., 2008). E/Emax was expressed as percentage of Emax elicited by the contractile agents; […] The analysis of the potential synergism between RPL554 plus a β2-adrenergic receptor agonist was measured by applying the Berenbaum method, the Bliss Independence (BI) criterion and the Loewe Additivity (LA) model through curved isoboles (Berenbaum, 1977; Greco et al., 1995; Grabovsky and Tallarida, 2004; Tallarida, 2006; Goldoni and Johansson, 2007; Tallarida and Raffa, 2010). […] Lee, 2010). The BI theory for two agents is expressed by the following equation: E(x,y)=Ex+Ey-(Ex*Ey), where E is the fractional effect, and x and y are the concentrations of two compounds in a combination experiment. If the combination effect is higher than the expected value from the above equation, the interaction is considered synergistic, while if this effect is lower, the interaction is antagonistic. […] In this study, the BI equation was characterized by X=RPL554 and Y=β2-adrenergic receptor agonist. […] Using the concept of dose equivalence, the relationship a/A+b/B=1 was reformulated as b+beq (a)=B, where beq is the dose equivalent of a and solving for beq(a) by equating the two individual concentration response curves EA=f(A) and EB=f(B). The additive response (Eab) for each dose combination with respect to B was then calculated by insertion of B into EB=f(B). The difference between the observed relaxation response to the combination doses and the additive response was calculated and analysed using a one sample t-test and for multiple comparisons, the probability was adjusted for multiple comparisons using a Bonferroni correction. For illustrative purposes, the 1:1 dose combinations were analysed for synergy. […] Then, concentration response curves were constructed to test individual compound RPL554, or salbutamol alone; or RPL554 administered in combination with salbutamol in order to produce isobolar graphs (salbutamol:RPL554 and ranging from 10:1 to 1:100) as described elsewhere (Greco et al., 1995; Tallarida, 2001; Goldoni and Johansson, 2007; Boik et al., 2008; Lee, 2010).
# [3] = test system: passively sensitized human isolated bronchi; assay: Contraction induced by histamine in passively sensitized human bronchi; settings: RPL554 100 μM
# Protocol: Human isolated bronchial rings were rotated overnight at room temperature in tubes containing KH buffer solution in the absence (non-sensitized control rings) or the presence of 10% vol^−1 sensitizing serum (sensitized rings) as described elsewhere (Watson et al., 1997; Rabe, 1998). Subjects suffering from atopic asthma (total IgE>250 U^−1 specific against common aeroallergens) during exacerbation provided signed consent for serum donation.
# Sera was prepared by centrifugation of whole blood and sera samples were frozen at −80° C. in 200 ml aliquots until required.
# The next morning, after removal of adhering alveolar and connective tissues, bronchial rings were transferred into an organ bath containing KH buffer (37° C.) and continuously gassed with a 95% O2/5% CO2. Tissues were pre-incubated for 30 min with RPL554 (1, 10 and 100 μM) and then followed (without washing) by the construction of concentration responses curve to histamine (10 nM-1 mM) in the presence of RPL554.
# Appropriate curve-fitting to a sigmoidal model was used to calculate the effect (E), the Emax and the concentration required to cause a 50% maximal effect (EC50). The equation used was log [agonist] vs. response, Variable slope, expressed as Y=Bottom+(Top−Bottom)/{1+10^[(Log EC50−X)*HillSlope]} (Motulsky and Christopoulos, 2004; Goodman et al., 2008). […]
# [4] = test system: anaesthetized rats; assay: Cardiovascular interaction (safety) study, blood pressure and heart rate, i.v. bolus; assay type: in vivo, rat
# Excerpt: This study was undertaken to determine whether RPL554 has cardiovascular interactions with a β2-adrenergic receptor agonist (salbutamol). A muscarinic receptor antagonist (atropine) was included for completeness. RPL554 is a dual PDE3/PDE4 inhibitor being developed for treatment of chronic obstructive pulmonary disease (COPD) and asthma as an inhaled bronchodilator with possible anti-inflammatory actions. […] The study design was blind and random with drugs given as pairs five minutes apart in an alternating manner, e.g., RPL554 followed by salbutamol and vice versa. […] Instead they were chosen to test for possible interactions under supra therapeutic conditions.
# Doses producing a 15-30 mmHg increase in mean blood pressure (MBP) and 30-60 beats per minute increase in heart rate (HR) were chosen from an initial dose-response study for RPL554 and salbutamol. […] Thereafter, the chosen doses were examined in pairs administered 5 minutes part. […] The intention of the study was to use supra normal conditions in order to challenge for possible interactions under supra therapeutic conditions.
# The studies were performed on Sprague-Dawley male rats from Charles River weighing 200-250 grms. […] For the purposes of the experiment the animals were anaesthetized with thiobutabarbital at a dose of 100 mg/kg given by the i.p. route. There was no necessity for supplemental anaesthesia and at the end of the experimental period each rat was sacrificed. The study had two parts: (I) an initial dose ranging study and (II) the interaction study. The drugs studied were: RPL554 (R), salbutamol (S), atropine (A) all dissolved in saline.
# An initial dose-ranging study was performed as follows: cumulative dose-response curves for intravenous bolus doses of the three drugs were performed to determine appropriate doses of each of the three drugs for the full study. Doses of RPL554 or salbutamol producing a 15-30 mmHg increase in mean blood pressure (MBP) and 30-60 beats per minute increase in heart rate (HR) were chosen from this initial dose-response study. […] This dose-ranging study involved four rats in which cumulative doses of each of the 3 drugs were given on a dose-doubling basis. Doses of each of the drugs were given as i.v. bolus injections every 5 minutes with 1 hour between different drugs. The order of injections were: for animal 1—S, R, A; animal 2—R, A, S; animal 3—A, S, R and animal 4—R, A, S. As indicated above the doses and routes of injection where chosen as supernormal and above doses producing effects when given by inhalation.
# In this study all drugs were given as a single dose by i.v. bolus injection, via a jugular vein cannula, and at a volume of 1 mL/kg. The study design was blind and random with three lines each containing four animals for a total of 12 animals.
# Pairs of drugs were given to individual animals on a randomized blind basis using a line by line design where each line contained four rats with injections as follows: R1S2, S1R2, R1A2 and A1R2 (in random order where 1 indicates the first drug given and 2 indicates the second drug given 5 minutes after the first drug). A total of 3 lines were studied thus a total of 12 rats were used and none of the animals had to be replaced.
# [5] = test system: Guinea pigs; assay: Reduction in mean arterial blood pressure after iv. administration; assay type: in vivo, guinea pig; settings: 20 μg/kg RPL554 iv., control (alone)
# Protocol: (§1) Guinea pigs were anaesthetized and ventilated. Airway obstruction was induced by the intravenous administration of bombesin (2 μg/ml; 5 ml/hr). Bronchodilation was induced by the iv. administration of RPL554 alone at various doses, or in combination with sub maximal dose of salbutamol (20 μg/kg). Doses were selected following studies generating a dose-response curve for both salbutamol to select a dose resulting in approximately 20% reduction in airways obstruction. Total lung resistance (RL) and mean arterial blood pressure were measured. Data are expressed as % reduction in airways obstruction or blood pressure.
# [6] = test system: guinea pig airways; assay: Reversal of bombesin-induced airways obstruction (total lung resistance); assay type: in vivo; settings: salbutamol 20 μg/kg alone
# Protocol: as §1
SMILES,Duration of inhibition of EFS contractile response after exposure to drug [1],slope (nH) ([2]; mean±SD),Effect on contraction induced by histamine [3],"Time to peak response, blood pressure [4]","Time to peak response, heart rate [4]",reduction in mean arterial blood pressure [5],"EC50 ([2]; Homo sapiens, geomean (95% CI), acetylcholine EC70, read-out: potency (EC50), relaxation)","Emax ([2]; Homo sapiens, mean±SD, acetylcholine EC70, percentage of papaverine (500 μM) induced relaxation)",reduction in airways obstruction [6]
"COc1cc2c(cc1OC)-c1cc(=Nc3c(C)cc(C)cc3C)n(CCNC(N)=O)c(=O)n1CC2 [RPL554, 9,10-Dimethoxy-2-(2,4,6-trimethylphenylimino)-3-(N-carbamoyl-2-aminoethyl)-3,4,6,7-tetrahydro-2H-pyrimido[6,1-a]isoquinolin-4-one]",at least 5 h,2.271±0.713,completely abolished the contraction induced by histamine,60 to 80 s,2 to 4.5 min,37.3±6.7%,–,–,–
CN1[C@@H]2CC[C@H]1C[C@@H](OC(=O)C(CO)c1ccccc1)C2 (some centres unmarked) [atropine],–,–,–,240 s,4 min,–,–,–,–
CC(C)(C)NCC(O)c1ccc(O)c(CO)c1 (centres unmarked) [salbutamol],–,1.572±0.482,–,approximately 20 seconds,~1 min,–,283 nM,78 ± 11%,34.2±11.1%
